# Assay results from US6528536B1, “Fungicidal mixtures” (BASF Aktiengesellschaft, priority 1997, dated 2003).
# System: powdery mildew of wheat (Erysiphe graminis forma specialis tritici)
# Experiment: Activity against powdery mildew of wheat (protective spray on wheat seedlings, greenhouse)
# Format: in vivo
# Settings: evaluated after 7 days
# From the text: The active ingredients, separately or together, were formulated as a 10% emulsion in a mixture of 70% by weight of cyclohexanone, 20% by weight of Nekanil® LN (Lutensol® AP6, wetting agent having emulsifying and dispersing action, based on ethoxylated alkylphenols) and 10% by weight of Emulphor® EL (Emulan® EL, emulsifier based on ethoxylated fatty alcohols) and diluted with water to give the desired concentration.
# Leaves of wheat seedlings cv. “Fr{umlaut over (u )}hgold” which had been grown in pots were sprayed to runoff point with an aqueous preparation of active ingredient which had been made from a stock solution comprising 10% of active compound, 63% of cyclohexanone and 27% of emulsifier, and, 24 hours after the spray coating had dried on, were dusted with spores of powdery mildew of wheat (Erysiphe graminis forma specialis tritici). […] After 7 days, the extent of mildew development was determined visually in % infection of the total leaf area.
# Evaluation was carried out by determining the infected leaf areas in percent. […] The efficacy (E) was calculated as follows using Abbot's formula: […]
# The expected degrees of action of the mixtures of the active ingredients were determined using Colby's formula [R. S. Colby, Weeds 15, (1967) 20-22] and compared with the observed degrees of action. […]
smiles,measurement,setting,value
CO/N=C(/C(=O)OC)c1ccccc1COc1ccccc1C [Ia],Efficacy in % of the untreated contol,0.3 ppm active ingredient in the spray liquor,0%
same,Efficacy in % of the untreated contol,0.6 ppm active ingredient in the spray liquor,0%
